Values of other authors in patent publication US12233070B2, “Methods for treating benzodiazepine misuse/use disorder” (University of M[…] Center, priority 2020, dated 2025).

Tested on: rhesus monkeys
Details: visual recognition memory and spatial working memory; cited from earlier work

For `CC(C)(O)c1cnn2c(-c3ccc(F)c(-c4c(F)cccc4C#N)c3)cnc2n1` [TPA023B], the “accuracy in DMTS and SOSS tasks” value is listed as “did not alter accuracy”.
